The NIST ThermoML archive (doi:10.1007/s10765-009-0579-1)

Test: xn = mol fraction of the nth substance listed
Settings: Gas; for viscosity: Oscillating disk viscometry; for mass density: Pycnometric method

CC(F)(F)Cl [1-chloro-1,1-difluoroethane] + FC(F)Cl
Settings	mass density [kg/m3]	viscosity [mPa·s]
298.15 K, 101.5 kPa, x2 = 0.5169	3.896	0.01164
298.15 K, 101.7 kPa, x2 = 0.7502	3.754	0.01219
298.15 K, 101.8 kPa, x2 = 0.2615	4.07	0.01109
298.15 K, 177.1 kPa, x2 = 0.5169	6.906	0.01163
298.15 K, 198 kPa, x2 = 0.7502	7.44	0.01217
298.15 K, 205.6 kPa, x2 = 0.2615	8.45	0.01104
298.15 K, 248.7 kPa, x2 = 0.5169	9.867	0.0116
298.15 K, 291.6 kPa, x2 = 0.7502	11.16	0.01212
298.15 K, 299.2 kPa, x2 = 0.2615	12.59	0.01102
298.15 K, 323.9 kPa, x2 = 0.5169	13.12	0.01159
298.15 K, 357.3 kPa, x2 = 0.2615	15.25	0.01103
298.15 K, 384.8 kPa, x2 = 0.7502	15.02	0.01212
298.15 K, 391.5 kPa, x2 = 0.5169	16.21	0.01158
298.15 K, 406.4 kPa, x2 = 0.2615	17.6	0.011
298.15 K, 453.1 kPa, x2 = 0.5169	19.06	0.01157
298.15 K, 477.3 kPa, x2 = 0.7502	18.96	0.0121
298.15 K, 571.3 kPa, x2 = 0.7502	23.23	0.01209
323.15 K, 101.8 kPa, x2 = 0.2615	3.732	0.01206
323.15 K, 102.2 kPa, x2 = 0.7502	3.468	0.0132
323.15 K, 102.4 kPa, x2 = 0.2615	3.755	0.01207
323.15 K, 103 kPa, x2 = 0.5169	3.663	0.01262
323.15 K, 190 kPa, x2 = 0.5169	6.762	0.01261
323.15 K, 199 kPa, x2 = 0.7502	6.842	0.0132
323.15 K, 200 kPa, x2 = 0.2615	7.459	0.01203
323.15 K, 276.2 kPa, x2 = 0.5169	10.03	0.01259
323.15 K, 297.3 kPa, x2 = 0.7502	10.36	0.01317
323.15 K, 299.4 kPa, x2 = 0.2615	11.38	0.01201
323.15 K, 373.4 kPa, x2 = 0.5169	13.8	0.01259
323.15 K, 396.6 kPa, x2 = 0.2615	15.36	0.012
323.15 K, 398.7 kPa, x2 = 0.7502	14.09	0.01318
323.15 K, 473.2 kPa, x2 = 0.5169	17.99	0.01258
323.15 K, 492.9 kPa, x2 = 0.2615	19.48	0.01199
323.15 K, 510 kPa, x2 = 0.7502	18.34	0.0132
323.15 K, 575.5 kPa, x2 = 0.5169	22.07	0.01257
323.15 K, 593.3 kPa, x2 = 0.2615	23.99	0.01199
323.15 K, 618.1 kPa, x2 = 0.7502	22.66	0.0132
323.15 K, 670.6 kPa, x2 = 0.5169	26.3	0.01258
323.15 K, 687 kPa, x2 = 0.2615	28.43	0.01202
323.15 K, 724.7 kPa, x2 = 0.7502	26.96	0.01318
323.15 K, 771 kPa, x2 = 0.5169	30.74	0.01259
323.15 K, 793.7 kPa, x2 = 0.2615	33.76	0.01211
323.15 K, 828.4 kPa, x2 = 0.7502	31.41	0.0132
323.15 K, 867.1 kPa, x2 = 0.5169	35.23	0.0126
323.15 K, 937.9 kPa, x2 = 0.7502	36.25	0.01322
348.15 K, 101.4 kPa, x2 = 0.5169	3.305	0.01354
348.15 K, 101.6 kPa, x2 = 0.7502	3.189	0.01427
348.15 K, 102.1 kPa, x2 = 0.2615	3.463	0.01295
348.15 K, 198.6 kPa, x2 = 0.5169	6.548	0.01355
348.15 K, 199 kPa, x2 = 0.2615	6.847	0.01294
348.15 K, 200.7 kPa, x2 = 0.7502	6.368	0.01423
348.15 K, 296.9 kPa, x2 = 0.2615	10.36	0.01293
348.15 K, 344.3 kPa, x2 = 0.7502	11.09	0.01422
348.15 K, 345.4 kPa, x2 = 0.5169	11.61	0.01355
348.15 K, 446.2 kPa, x2 = 0.2615	15.92	0.01294
348.15 K, 490.8 kPa, x2 = 0.5169	16.98	0.01355
348.15 K, 490.8 kPa, x2 = 0.7502	16.07	0.01424
348.15 K, 590.8 kPa, x2 = 0.2615	21.56	0.01297
348.15 K, 637.2 kPa, x2 = 0.5169	22.25	0.01354
348.15 K, 638.2 kPa, x2 = 0.7502	21.43	0.01423
348.15 K, 736.9 kPa, x2 = 0.2615	27.57	0.01297
348.15 K, 781.7 kPa, x2 = 0.5169	27.87	0.01358
348.15 K, 782.5 kPa, x2 = 0.7502	26.5	0.01425
348.15 K, 887.3 kPa, x2 = 0.2615	34.14	0.01301
348.15 K, 925.6 kPa, x2 = 0.7502	31.97	0.01428
348.15 K, 930.2 kPa, x2 = 0.5169	33.93	0.01365
348.15 K, 1036 kPa, x2 = 0.2615	40.96	0.01302
348.15 K, 1077 kPa, x2 = 0.5169	40.31	0.01365
348.15 K, 1090 kPa, x2 = 0.7502	38.36	0.0143
348.15 K, 1182 kPa, x2 = 0.2615	48.22	0.01307
348.15 K, 1240 kPa, x2 = 0.7502	44.53	0.01438
348.15 K, 1262 kPa, x2 = 0.5169	48.67	0.0137
348.15 K, 1334 kPa, x2 = 0.2615	56.48	0.01312
348.15 K, 1392 kPa, x2 = 0.7502	51.21	0.01443
348.15 K, 1408 kPa, x2 = 0.5169	56	0.01377
348.15 K, 1489 kPa, x2 = 0.2615	65.73	0.01325
348.15 K, 1541 kPa, x2 = 0.7502	58.1	0.0145
348.15 K, 1552 kPa, x2 = 0.5169	63.84	0.01386
348.15 K, 1683 kPa, x2 = 0.7502	64.7	0.01457
373.15 K, 101.5 kPa, x2 = 0.5169	3.079	0.01451
373.15 K, 102.1 kPa, x2 = 0.7502	2.984	0.01518
373.15 K, 102.2 kPa, x2 = 0.2615	3.224	0.01377
373.15 K, 245.8 kPa, x2 = 0.7502	7.266	0.01517
373.15 K, 294.3 kPa, x2 = 0.5169	9.101	0.01449
373.15 K, 298.2 kPa, x2 = 0.2615	9.612	0.0138
373.15 K, 390.1 kPa, x2 = 0.7502	11.68	0.0152
373.15 K, 490 kPa, x2 = 0.5169	15.46	0.01452
373.15 K, 493.6 kPa, x2 = 0.2615	16.27	0.01381
373.15 K, 583.4 kPa, x2 = 0.7502	17.74	0.01521
373.15 K, 686.2 kPa, x2 = 0.5169	22.09	0.01454
373.15 K, 695.2 kPa, x2 = 0.2615	23.4	0.01381
373.15 K, 782.8 kPa, x2 = 0.7502	24.22	0.01526
373.15 K, 876.7 kPa, x2 = 0.2615	30.25	0.01387
373.15 K, 879 kPa, x2 = 0.5169	28.79	0.01458
373.15 K, 889.8 kPa, x2 = 0.2615	30.77	0.01388
373.15 K, 978.5 kPa, x2 = 0.7502	30.82	0.0153
373.15 K, 1080 kPa, x2 = 0.5169	36.34	0.01464
373.15 K, 1085 kPa, x2 = 0.2615	38.57	0.01394
373.15 K, 1173 kPa, x2 = 0.7502	37.6	0.01535
373.15 K, 1277 kPa, x2 = 0.5169	43.98	0.01476
373.15 K, 1281 kPa, x2 = 0.2615	46.94	0.01403
373.15 K, 1361 kPa, x2 = 0.7502	44.52	0.01542
373.15 K, 1472 kPa, x2 = 0.5169	51.98	0.0148
373.15 K, 1483 kPa, x2 = 0.2615	56.2	0.01413
373.15 K, 1565 kPa, x2 = 0.7502	52.28	0.0155
373.15 K, 1666 kPa, x2 = 0.5169	60.38	0.01486
373.15 K, 1689 kPa, x2 = 0.2615	66.3	0.01426
373.15 K, 1760 kPa, x2 = 0.7502	60.2	0.01559
373.15 K, 1862 kPa, x2 = 0.5169	69.61	0.01502
373.15 K, 1897 kPa, x2 = 0.2615	77.72	0.01439
373.15 K, 1952 kPa, x2 = 0.7502	68.25	0.01568
373.15 K, 2065 kPa, x2 = 0.5169	80.02	0.01509
373.15 K, 2115 kPa, x2 = 0.2615	91.26	0.01461
373.15 K, 2190 kPa, x2 = 0.7502	79.1	0.01586
373.15 K, 2295 kPa, x2 = 0.5169	92.76	0.01537
373.15 K, 2299 kPa, x2 = 0.2615	104.3	0.01486
373.15 K, 2398 kPa, x2 = 0.7502	89.07	0.01602
373.15 K, 2448 kPa, x2 = 0.5169	102	0.01542
373.15 K, 2467 kPa, x2 = 0.2615	117.9	0.01516
